Assay results taken from US20260097090A1, “HERBAL MEDICINE EXTRACTS RM01 AND USES AND METHODS OF PREPARATION THEREOF” (RenuMemo Therapeutics LLC, priority 2022, published 2026).

Tested on: patient with severe Alzheimer's disease
Test: Human efficacy case study, Mini Mental State Examination (MMSE) and family report
Type: in vivo
Settings: same patient, long time taking Memantine and Donepezil before RM01; drugs stopped before the visit
Experimental: The patient has been taking Memantine and Donepezil to treat their disease. However, both drugs were stopped before the visit.
The patient was evaluated by Mini Mental State Examination (MMSE) during the first visit.
The patient was given the herbal extract composition RM01 twice a day every day, for five weeks. Family member assisted all the process.
The patient was re-evaluated of MMSE after 1 week of treatment. In the meantime, the family member was questioned on patient daily life, regarding sleep, mood, reaction to people, behavioral and psychological symptoms.
The treatment and re-evaluation lasted 5 weeks.

SMILES | patient symptom improvement on prior medication, informed by the patient's spouse
COc1cc2c(cc1OC)C(=O)C(CC1CCN(Cc3ccccc3)CC1)C2 (centres unmarked) [Donepezil] | not much effect
CC12CC3CC(C)(C1)CC(N)(C3)C2 [Memantine] | not much effect
